Where no end group is shown, it is not given here.
Legend:
[1] = system: S. aureus ATCC 12600; type: cell-based, Staphylococcus aureus; details: ATCC 12600, 24 h
Protocol: Fig. 2 Antimicrobial activity and secondary structure of computationally designed peptides. a, Structure prediction of the synthesized peptides. b, Heatmap of the antimicrobial activities of the peptides against 11 clinically relevant pathogens, including four strains resistant to conventional antibiotics. Briefly, 10^6 bacterial cells and serially diluted peptides (1-64 μmol l^−1) were incubated at 37 °C. One day after treatment, the optical density at 600 nm was measured in a microplate reader to evaluate bacterial growth in the presence of the peptides. MIC values in the heatmap are the mode of the replicates in each condition. c–f, Ternary plots showing the percentage of secondary structure for each peptide (at 50 μmol l^−1) in four different solvents: water (c), 60% TFE in water (d), 10 mmol l^−1 SDS in water (e) and 50% methanol (MeOH) in water (f). Secondary structure fractions were calculated using the BeStSel server. […] An error of one column cannot be fully excluded. / Panel b: AT1, AT2, AT3 and all blank cells print no number and are left out. […]

[2] = system: A. baumannii ATCC 19606; type: cell-based, Acinetobacter baumannii; details: ATCC 19606, 24 h
Protocol: (§1) Fig. 2 Antimicrobial activity and secondary structure of computationally designed peptides. a, Structure prediction of the synthesized peptides. b, Heatmap of the antimicrobial activities of the peptides against 11 clinically relevant pathogens, including four strains resistant to conventional antibiotics. Briefly, 10^6 bacterial cells and serially diluted peptides (1-64 μmol l^−1) were incubated at 37 °C. One day after treatment, the optical density at 600 nm was measured in a microplate reader to evaluate bacterial growth in the presence of the peptides. MIC values in the heatmap are the mode of the replicates in each condition. c–f, Ternary plots showing the percentage of secondary structure for each peptide (at 50 μmol l^−1) in four different solvents: water (c), 60% TFE in water (d), 10 mmol l^−1 SDS in water (e) and 50% methanol (MeOH) in water (f). Secondary structure fractions were calculated using the BeStSel server. […] An error of one column cannot be fully excluded. / Panel b: AT1, AT2, AT3 and all blank cells print no number and are left out.
(§2) In this study, we used the following pathogenic bacterial strains: A. baumannii ATCC 19606, E. coli AIC221 (E. coli MG1655 phnE_2::FRT (control strain for AIC222)) and E. coli AIC222 (E. coli MG1655 pmrA53 phnE_2::FRT (polymyxin resistant; colistin-resistant strain)), Klebsiella pneumoniae ATCC 13883, Pseudomonas aeruginosa PAO1, P. aeruginosa PA14 and Staphylococcus aureus ATCC 12600. All pathogens were grown in Luria–Bertani (LB) broth and on LB agar. Pseudomonas isolation (P. aeruginosa strains) agar plates were exclusively used in the case of Pseudomonas species. In all the experiments, bacteria were inoculated from one isolated colony and grown overnight (16 h) in liquid medium at 37 °C. On the following day, inocula were diluted 1:100 in fresh media and incubated at 37 °C to mid-logarithmic phase.
(§3) Broth microdilution assays[64] were conducted to establish the MIC for each peptide. Peptides were added to untreated polystyrene 96-well microtiter plates and serially diluted twofold in sterile water, ranging from 1 to 64 μmol l^−1. A bacterial inoculum at a concentration of 10^6 CFU ml^−1 in LB medium was then mixed in a 1:1 ratio with the peptide solution. […] Each assay was performed in three independent replicates.

[3] = system: S. aureus ATCC BAA-1556 - MRSA; type: cell-based; details: ATCC BAA-1556, 24 h
Protocol: as §1, §3

[4] = system: E. faecium ATCC 700221 - VRE; type: cell-based; details: ATCC 700221, 24 h
Protocol: as §1, §3

[5] = system: HEK293T cells; experiment: Cytotoxicity, MTT assay; type: cell-based, human; details: 24 h
Protocol: Fig. 3 Mechanism of action and cytotoxic activity of designed peptides. a, To assess whether the peptides act on bacterial membranes, all active peptides against A. baumannii American Type Culture Collection (ATCC) 19606 were subjected to outer-membrane permeabilization, and peptides active against A. baumannii ATCC 19606 and vancomycin-resistant E. faecalis ATCC 700802 were tested in cytoplasmic-membrane depolarization assays. b, The fluorescent probe NPN was used to assess membrane permeabilization induced by the tested peptides. c,d, The fluorescent probe DiSC3-5 was used to evaluate membrane depolarization caused by the designed peptides in A. baumannii ATCC 19606 (c) and vancomycin-resistant E. faecalis ATCC 700802 (d). […] All experiments were performed in three independent replicates. Panel a created with BioRender.com. Source data TEXT PRINTED IN THE PICTURE: (e) AT1: CC50 (μmol l^-1), HEK293T cells: 2,758 | (e) AT2: CC50 (μmol l^-1), HEK293T cells: 2 × 10^37 | (e) AT3: CC50 (μmol l^-1), HEK293T cells: 269 | (e) AT4: CC50 (μmol l^-1), HEK293T cells: 3,015 | (e) AT5: CC50 (μmol l^-1), HEK293T cells: 6 × 10^41 | (e) NE1: CC50 (μmol l^-1), HEK293T cells: 6 × 10^33 | (e) NE2: CC50 (μmol l^-1), HEK293T cells: 507 | (e) NE3: CC50 (μmol l^-1), HEK293T cells: 655 | (e) NE4: CC50 (μmol l^-1), HEK293T cells: 2 × 10^32 | (e) NG1: CC50 (μmol l^-1), HEK293T cells: 351 | (e) NG2: CC50 (μmol l^-1), HEK293T cells: 1 × 10^35 | (e) NG3: CC50 (μmol l^-1), HEK293T cells: 2 × 10^46 DOUBTS OF THE COPYIST ABOUT THIS PICTURE: AT2, CC50: small exponent, 37 or 57 / AT5, CC50: small exponent, 41 uncertain / NE1, CC50: small exponent, 33 or 38 / NE4, CC50: small exponent, 32 or 52 / NG2, CC50: small exponent, 35 or 36 / NG3, CC50: small exponent, 46 or 48 […]
HEK293T cells were obtained from the ATCC (CRL-3216). The cells were cultured in high-glucose DMEM supplemented with 1% penicillin and streptomycin (antibiotics) and 10% fetal bovine serum and grown at 37 °C in a humidified atmosphere containing 5% CO2.
One day before the experiment, an aliquot of 100 μl of the cells at 50,000 cells ml^−1 was seeded into each well of the cell-treated 96-well plates used in the experiment (that is, 5,000 cells per well)[45]. The attached HEK293T cells were then exposed to increasing concentrations of the peptides (4–64 μmol l^−1) for 24 h. After the incubation period, we performed the (3-(4,5-dimethylthiazol-2-yl)-2,5-diphenyltetrazolium bromide) tetrazolium reduction assay (MTT assay)[45]. […] The resulting salts were then resuspended in hydrochloric acid (0.04 mol l^−1) in anhydrous isopropanol and quantified by spectrophotometric measurements of absorbance at 570 nm. […]

[6] = system: K. pneumoniae ATCC 13883; type: cell-based, Klebsiella pneumoniae; details: ATCC 13883, 24 h
Protocol: as §1, §2, §3

FRLAAVLHFHIH [AT4]
MIC [1]: 64 µM | MIC [2]: 32 µM | MIC [3]: 16 µM | MIC [4]: 32 µM | CC50, cytotoxic concentration leading to 50% cell lysis [5]: 3.015 mM | MIC [6]: 8 µM
